Experimental data: US20120196935A1, “METHODS FOR DETECTING AUTODIGESTION” (THE REGENTS OF THE UNIVERSITY OF CALIFORNIA, priority 2009, published 2012)

System: experimental rats in hemorrhagic shock
Test: hemorrhagic shock in rats with blockage of digestive enzymes in the lumen of the intestine
Format: in vivo
Conditions: hemorrhagic shock (two hour reduction of blood pressure), inhibitor infused into the lumen of the intestine
Excerpt: Fetid organic material was released from animals subject to autodigestion by pancreatic enzymes, but not from those that were not subject to autodigestion. Non-surviving animals uniformly released fetid organic material, while survivors produced dramatically lower levels. For example, animals with blockage of digestive enzymes in the lumen of the intestine (by infusion of pancreatic serine protease inhibitors, such as cyclokapron) in hemorrhagic shock had lower levels of substances such as putrescine, cadaverine, methional, and transthyretin.

NC[C@H]1CC[C@H](C(=O)O)CC1 [cyclokapron]
levels of substances such as putrescine, cadaverine, methional, and transthyretin: lower levels
